Measurements published in patent publication US11518805B2, “Binding inhibitor between TCTP dimer type IgE-dependent histamine releasing factor and receptor thereof, and use thereof” (EWHA UNIVERSITY—INDUSTRY COLLABORATION FOUNDATION, priority 2014, dated 2022).
Entries after “also recorded” stand apart in the source; their conditions may differ.

What was measured:
Del-N11dTCTP = target: T1, Del-N11dTCTP (Rattus norvegicus, UniProt P63029); experiment: Inhibition of Del-N11dTCTP-induced IL-8 secretion by domain peptides in BEAS-2B cells; format: cell-based; settings: Del-N11dTCTP 70 nM, peptide molar ratios 0~1, 24 hours, ELISA
T1 construct: made in house
T1 sequence (P63029 11-172 limits assumed): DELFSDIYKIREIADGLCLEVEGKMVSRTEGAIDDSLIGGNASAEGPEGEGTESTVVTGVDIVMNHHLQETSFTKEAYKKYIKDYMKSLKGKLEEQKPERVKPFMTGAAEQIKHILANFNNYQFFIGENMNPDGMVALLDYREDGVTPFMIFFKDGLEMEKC
Method: To investigate inhibitory effect of FL domain, Helix 2 domain, and Helix 3 domain on Del-N11dTCTP, the inventors synthesized FL domain (Ac-[…]-NH2) (SEQ. ID. NO: 1), Helix 2 domain (Ac-[…]-NH2) (SEQ. ID. NO: 11), and Helix 3 domain (Ac-[…]-NH2) (SEQ. ID. NO: 22) by using the synthetic peptides prepared with NH2-terminal acetylation and COOH-terminal amidation, followed by purification.
Particularly, BEAS-2B cells were treated with Del-N11dTCTP (70 nM) by the same manner as described in Experimental Example 1. At this time, the synthesized FL domain, Helix 2 domain, and Helix 3 domain were treated to the cells at different molar ratios (0˜1), followed by reaction for 30 minutes. Then, Del-N11dTCTP was added thereto. 24 hours later, the supernatant was obtained and the released IL-8 was quantified by ELISA.

[1] = system: asthma and rhinitis animal models induced with ovalbumin; experiment: FL and H2 domain peptides in ovalbumin-induced asthma and rhinitis animal models; format: in vivo, BALB/c female mice; settings: for inflammatory cells in bronchoalveolar lavage fluid (total cell number, leukocyte number) / level of IL-5 in bronchoalveolar lavage fluid: 20 mg/kg intraperitoneal, vs positive control (PBS)
Method: Particularly, 5 week old specific pathogen free BALB/c female mice (weight: approximately 20 g) were purchased from Orientbio Inc. (Seoul, Korea), followed by stabilization in an animal laboratory for 1 week. The mice were administered with 200 ? of PBS containing 1.3 mg of aluminum hydroxide (Sigma A8222) and 100 μg of ovalbumin (Sigma A5503) via intraperitoneal injection twice at a week interval, followed by sensitization. Then, 20 ? of PBS containing 200 μg of ovalbumin dissolved therein was administered via intranasal instillation on day 14, day 16, and day 18 to induce immune response. PBS was administered for the positive control and FL and H2 domains and the antisera or antibodies thereof were administered via intraperitoneal injection 10 minutes before antigen administration. On day 15, day 17, and day 19, intraperitoneal administration was performed without antigen administration. On day 19, the animals were sacrificed 2 hours after the administration (FIG. 16). 50 μg of anti-C terminus IgG was administered via intranasal instillation or intraperitoneal injection 30 minutes before the antigen administration on day 14, day 16, and day 18. 24 hours after the last administration, the animals were sacrificed (FIG. 26). The asthma and rhinitis models constructed in Example 7 were treated with FL and H2 domain at the concentration of 20 mg/kg in order to investigate whether or not those two HRF receptor binding domains could suppress pathophysiological lesion of asthma and rhinitis. Particularly, after cardiac blood collection in the animal model constructed in Example 7, bronchoalveolar lavage was performed. The airway was opened and a 20-gauge intravascular tube catheter was inserted through the opened airway, through which 0.8 ml of PBS containing 2% FBS was slowly injected three times and then recovered. The recovery rate was at least 80% and the recovered washing solution was centrifuged at 4° C. for 15 minutes at 1,000×g. The obtained supernatant was used for the detection of cytokine such as IL-5 or for the detection of TCTP protein. In the meantime, the precipitate was resuspended in 100 ? of PBS containing 2% FBS. The number of the inflammatory cells infiltrated in the washing solution was counted by using HEMAVET 950FS (Drew Scientific). Particularly, upon completion of the experiment in Example 7, the mixture of zoletil (250 mg/kg) and rompun (50 mg/kg) was administered to the mouse via intraperitoneal injection to sacrifice the animal. 0.7˜0.8 mL of blood was collected from the heart and placed in a heparinized tube. The blood sample stood at room temperature for 30 minutes˜1 hour, followed by centrifugation at 1,000×g for 15 minutes to obtain plasma. The level of ovalbumin-specific IgE in the plasma was measured by ELISA. 100 μg of ovalbumin was dissolved in 0.05 M carbonate buffer (pH 9.6), which was distributed in a 96-well ELISA plate, followed by coating at 4° C. for overnight. Non-specific reaction was blocked by reacting the plate with TBS containing 1% BSA at room temperature for 30 minutes. The plasma sample was diluted (1:100), followed by reaction at room temperature for 1 hour, which was then washed with TBS containing 0.1% Tween-20. The […] anti-mouse IgE (SouthernBiotech) was diluted (1:8000), followed by reaction at room temperature for 1 hour. Then, the mixture was washed. TMB was treated thereto at room temperature. 10 minutes later, the reaction was terminated by adding 0.2 M H2SO4. Then, OD450 was measured with an ELISA reader. Particularly, bronchoalveolar lavage fluid was collected from the asthma and rhinitis animal models constructed in Example 7. The chest was dissected and the lung was extracted, which was washed with 4° C. PBS. The lung was cut to the appropriate size. Some of the lung pieces were fixed in PBS containing 4% paraformaldehyde (PFA) at room temperature via o/n fixation. […]

[2] = system: asthma and rhinitis animal models induced with ovalbumin; experiment: as above; format: in vivo, BALB/c female mice

Row | Substance | inhibition of IL-8 secretion induced by Del-N11dTCTP (Del-N11dTCTP) | inflammatory cells in bronchoalveolar lavage fluid (total cell number, leukocyte number) [1] | level of IL-5 in bronchoalveolar lavage fluid [1] | level of ovalbumin-specific IgE in plasma ([1]; 20 mg/kg, ELISA, vs positive control) | number of total cells and level of lymphocytes in bronchoalveolar lavage fluid ([1]; 20 mg/kg, p<0.01) | level of TCTP dimer (approximately 45 kDa) in bronchoalveolar lavage fluid, immunoblotting ([1]; vs positive control) | phospho-IκBα in lung tissue, immunoblotting ([1]; vs positive control) | IL-5 secretion in bronchoalveolar lavage fluid ([2]; 1 mg/kg) | inflammatory cells infiltrated in bronchoalveolar lavage fluid, dose dependence ([2]; 1 mg/kg and 20 mg/kg) | level of ovalbumin-specific IgE in plasma, dose dependence ([2]; various concentrations (1 and 20 mg/kg))
1 | Ac-TKEAYKKYIKDYMKSLKGKLEEQKP-NH2 [Helix 2 domain, ID; NO: 11] | inhibited IL-8 secretion better than Helix 3 domain; also recorded: inhibited more strongly | decreased | reduced | – | – | – | – | – | – | –
2 | Ac-SRTEGAIDDSLIGGNASAEGPEGEGTESTVVT-NH2 [FL domain, ID; NO: 1] | inhibited IL-8 secretion better than Helix 3 domain; also recorded: inhibited more strongly | significantly lower | reduced | reduced | significantly reduced | reduced | decreased | could inhibit IL-5 secretion | reduced FL domain dose-dependently | reduced by the treatment of FL domain dose-dependently
